Here are results for two compounds from US6887827B2, “Combinations of herbicidal aromatic carboxylic acids and safeners” (Bayer CropScience GmbH, priority 2002, dated 2005).

This data set relates to Triticum aestivum (wheat). The data set is described as follows: Post-emergence crop plant selectivity field trial: visually scored damage to wheat. Format: in vivo. The settings on record: wheat at 3-tiller growth stage, 39 days after treatment, average of three trials. The protocol:
1. Post-Emergence Effect on Weeds and Crop Plant Selectivity (Field Trials) Crop plants were grown outdoors on plots under natural outdoor conditions, and seeds or rhizome pieces of typical harmful plants were laid out or the natural weed growth was utilized. Treatment with the compositions according to the invention was carried out after the harmful plants had emerged and the crop plants were at the growth stage stated below. After the application, the effect of the composition was scored visually by comparison with untreated controls.

Regarding `CCOC(=O)C1=NN(c2ccc(Cl)cc2Cl)C(C)(C(=O)OCC)C1` (centres unmarked) [(B1.1.1), ethyl 1-(2,4-dichlorophenyl)-5-(ethoxycarbonyl)-5-methyl-2-pyrazoline-3-carboxylate], the “Phytotox (%) on TRZAS” value was 0% (50 g ai/ha) and 0% (120 g ai/ha).
Take `COc1c(Cl)ccc(Cl)c1C(=O)O` [(A1), 3,6-dichloro-2-methoxybenzoic acid]: the “Phytotox (%) on TRZAS” value was 27% (140 g ai/ha), 25% (210 g ai/ha) and 27% (280 g ai/ha).
